In the NIST ThermoML archive (doi:10.1021/je049610v):

Tests used:
[1] = xn = mol fraction of the nth substance listed; settings: 101 kPa, Liquid
[2] = refractive index (Na D-line) (dimensionless); xn = mol fraction of the nth substance listed; settings: 101 kPa, Liquid

COc1ccccc1 [anisole] + ClC(Cl)=C(Cl)Cl
x1 = 1
Settings | mass density, 298.15 K [kg/m3] | mass density, 303.15 K [kg/m3] | mass density, 308.15 K [kg/m3] | refractive index, 298.15 K | refractive index, 303.15 K | refractive index, 308.15 K | speed of sound, 298.15 K [m/s] | viscosity, 298.15 K [mPa·s] | viscosity, 303.15 K [mPa·s] | viscosity, 308.15 K [mPa·s]
[1] | 988.9 | 984.1 | 979.4 | – | – | – | 1410 | 0.992 | 0.919 | 0.853
[2] | – | – | – | 1.5148 | 1.5124 | 1.5092 | – | – | – | –

OCCCl [1-chloro-2-hydroxyethane] + COc1ccccc1
Settings | mass density, 298.15 K [kg/m3] | mass density, 303.15 K [kg/m3] | mass density, 308.15 K [kg/m3] | refractive index, 298.15 K | refractive index, 303.15 K | refractive index, 308.15 K | speed of sound, 298.15 K [m/s] | viscosity, 298.15 K [mPa·s] | viscosity, 303.15 K [mPa·s] | viscosity, 308.15 K [mPa·s]
[1], x2 = 0 | 1200.9 | 1192.5 | 1187.1 | – | – | – | 1358 | 3.104 | 2.669 | 2.347
[1], x2 = 0.103 | 1165.8 | 1158.6 | 1153.9 | – | – | – | 1365 | 2.6 | 2.334 | 2.068
[1], x2 = 0.209 | 1134.5 | 1129 | 1123.7 | – | – | – | 1372 | 2.13 | 1.943 | 1.755
[1], x2 = 0.313 | 1107.6 | 1102.5 | 1097.5 | – | – | – | 1378 | 1.778 | 1.631 | 1.485
[1], x2 = 0.395 | 1088.7 | 1083.9 | 1078.8 | – | – | – | 1382 | 1.583 | 1.452 | 1.32
[1], x2 = 0.49 | 1068.8 | 1064.3 | 1058.9 | – | – | – | 1388 | 1.418 | 1.289 | 1.16
[1], x2 = 0.59 | 1049.8 | 1044.8 | 1040.1 | – | – | – | 1392 | 1.269 | 1.158 | 1.046
[1], x2 = 0.69 | 1032.5 | 1027.5 | 1023 | – | – | – | 1397 | 1.155 | 1.064 | 0.972
[1], x2 = 0.797 | 1015.9 | 1010 | 1006.6 | – | – | – | 1402 | 1.087 | 1.004 | 0.921
[1], x2 = 0.898 | 1001.9 | 996.1 | 992.5 | – | – | – | 1406 | 1.007 | 0.936 | 0.865
[2], x2 = 0 | – | – | – | 1.4411 | 1.438 | 1.4326 | – | – | – | –
[2], x2 = 0.103 | – | – | – | 1.4495 | 1.4793 | 1.4468 | – | – | – | –
[2], x2 = 0.209 | – | – | – | 1.461 | 1.4586 | 1.4564 | – | – | – | –
[2], x2 = 0.313 | – | – | – | 1.4712 | 1.4684 | 1.4652 | – | – | – | –
[2], x2 = 0.395 | – | – | – | 1.4767 | 1.4745 | 1.4723 | – | – | – | –
[2], x2 = 0.49 | – | – | – | 1.4836 | 1.4807 | 1.4778 | – | – | – | –
[2], x2 = 0.59 | – | – | – | 1.4899 | 1.4879 | 1.4859 | – | – | – | –
[2], x2 = 0.69 | – | – | – | 1.4978 | 1.4951 | 1.4923 | – | – | – | –
[2], x2 = 0.797 | – | – | – | 1.5034 | 1.5011 | 1.4999 | – | – | – | –
[2], x2 = 0.898 | – | – | – | 1.5094 | 1.5067 | 1.5041 | – | – | – | –

COc1ccccc1 [anisole] + OCCCl
x1 = 1
Settings | mass density, 298.15 K [kg/m3] | mass density, 303.15 K [kg/m3] | mass density, 308.15 K [kg/m3] | refractive index, 298.15 K | refractive index, 303.15 K | refractive index, 308.15 K | speed of sound, 298.15 K [m/s] | viscosity, 298.15 K [mPa·s] | viscosity, 303.15 K [mPa·s] | viscosity, 308.15 K [mPa·s]
[1] | 988.9 | 984.1 | 979.4 | – | – | – | 1410 | 0.992 | 0.919 | 0.853
[2] | – | – | – | 1.5148 | 1.5124 | 1.5092 | – | – | – | –

COc1ccccc1 [anisole] + C1COCCO1
Settings | mass density, 298.15 K [kg/m3] | mass density, 303.15 K [kg/m3] | mass density, 308.15 K [kg/m3] | refractive index, 298.15 K | refractive index, 303.15 K | refractive index, 308.15 K | speed of sound, 298.15 K [m/s] | viscosity, 298.15 K [mPa·s] | viscosity, 303.15 K [mPa·s] | viscosity, 308.15 K [mPa·s]
[1], x1 = 0.0982 | 1023.3 | 1017.9 | 1012.9 | – | – | – | 1355 | 1.342 | 1.185 | 1.028
[1], x1 = 0.199 | 1018.4 | 1013.2 | 1008.2 | – | – | – | 1364 | 1.267 | 1.128 | 0.99
[1], x1 = 0.296 | 1014 | 1008.6 | 1003.9 | – | – | – | 1371 | 1.19 | 1.074 | 0.957
[1], x1 = 0.398 | 1009.7 | 1004.6 | 999.8 | – | – | – | 1378 | 1.12 | 1.028 | 0.936
[1], x1 = 0.5046 | 1005.5 | 1000.6 | 995.7 | – | – | – | 1385 | 1.072 | 0.994 | 0.917
[1], x1 = 0.6044 | 1001.8 | 996.9 | 992.1 | – | – | – | 1390 | 1.048 | 0.976 | 0.904
[1], x1 = 0.7057 | 998.3 | 993.5 | 988.6 | – | – | – | 1396 | 1.042 | 0.969 | 0.897
[1], x1 = 0.8028 | 995.1 | 990.5 | 985.4 | – | – | – | 1401 | 1.032 | 0.957 | 0.883
[1], x1 = 0.9005 | 991.9 | 987.4 | 982.4 | – | – | – | 1405 | 1.011 | 0.941 | 0.87
[1], x1 = 1 | 988.9 | 984.1 | 979.4 | – | – | – | 1410 | 0.992 | 0.919 | 0.853
[2], x1 = 0.0982 | – | – | – | 1.432 | 1.4295 | 1.427 | – | – | – | –
[2], x1 = 0.199 | – | – | – | 1.4434 | 1.4408 | 1.4383 | – | – | – | –
[2], x1 = 0.296 | – | – | – | 1.4538 | 1.4514 | 1.4496 | – | – | – | –
[2], x1 = 0.398 | – | – | – | 1.4647 | 1.4628 | 1.4603 | – | – | – | –
[2], x1 = 0.5046 | – | – | – | 1.475 | 1.472 | 1.47 | – | – | – | –
[2], x1 = 0.6044 | – | – | – | 1.484 | 1.4814 | 1.4789 | – | – | – | –
[2], x1 = 0.7057 | – | – | – | 1.4925 | 1.4899 | 1.4872 | – | – | – | –
[2], x1 = 0.8028 | – | – | – | 1.5009 | 1.4982 | 1.4956 | – | – | – | –
[2], x1 = 0.9005 | – | – | – | 1.5084 | 1.5054 | 1.5025 | – | – | – | –
[2], x1 = 1 | – | – | – | 1.5148 | 1.5124 | 1.5092 | – | – | – | –

C[S+](C)[O-] [dimethyl sulfoxide] + COc1ccccc1
x2 = 0
Settings | mass density, 298.15 K [kg/m3] | mass density, 303.15 K [kg/m3] | mass density, 308.15 K [kg/m3] | refractive index, 298.15 K | refractive index, 303.15 K | refractive index, 308.15 K | speed of sound, 298.15 K [m/s] | viscosity, 298.15 K [mPa·s] | viscosity, 303.15 K [mPa·s] | viscosity, 308.15 K [mPa·s]
[1] | 1095.4 | 1090.8 | 1086.2 | – | – | – | 1493 | 1.984 | 1.801 | 1.651
[2] | – | – | – | 1.4768 | 1.4594 | 1.4547 | – | – | – | –
